In patent publication US20110028504A1, “Formulation of radioprotective alpha beta unsaturated aryl sulfones” (ONCONOVA THERAPEUTICS, INC., priority 2005, published 2011):

Key:
[1] = system: HFL-1 cells; assay: Radioprotection of cultured normal cells, colony count after ionizing radiation; format: cell-based, human; conditions: 2.5 to 20 micromolar for 24 hrs before 10 Gy or 15 Gy ionizing radiation, colonies vs DMSO control
Procedure: HFL-1 cells, which are normal diploid lung fibroblasts, were plated into 24 well dishes at a cell density of 3000 cells per 10 mm^2 in DMEM completed with 10% fetal bovine serum and antibiotics. The test compounds listed in Table 28 were added to the cells 24 hours later in select concentrations from 2.5 to 20 micromolar, inclusive, using DMSO as a solvent. Control cells were treated with DMSO alone. The cells were exposed to the test compound or DMSO for 24 hrs. The cells were then irradiated with either 10 Gy (gray) or 15 Gy of ionizing radiation (IR) using a J.L. Shepherd Mark I, Model 30-1 Irradiator equipped with ^137cesium as a source.
After irradiation, the medium on the test and control cells was removed and replaced with fresh growth medium without the test compounds or DMSO. The irradiated cells were incubated for 96 hours and duplicate wells were trypsinized and replated onto 100 mm^2 tissue culture dishes. The replated cells were grown under normal conditions with one change of fresh medium for 3 weeks. The number of colonies from each 100 mm^2 culture dish, which represents the number of surviving cells, was determined by staining the dishes as described below.
To visualize and count the colonies derived from the clonal outgrowth of individual radioprotected cells, the medium was removed and the plates were washed one time with room temperature phosphate buffered saline. The cells were stained with a 1:10 diluted Modified Giemsa staining solution (Sigma) for 20 minutes. The stain was removed, and the plates were washed with tap water. The plates were air dried, the number of colonies from each plate were counted and the average from duplicate plates was determined.
A “+” indicates radioprotective activity of between 2- and 4.5-fold at the concentrations tested. Fold protection was determined by dividing the average number of colonies from the test plates by the average number of colonies on the control plates.

[2] = system: C57 black mice; assay: Protection of mice from radiation toxicity by pre-treatment; format: in vivo
Procedure: C57 black mice age 10-12 weeks (Taconic) were divided into two treatment groups of 10 mice each. One group, designated the “200×2” group, received intraperitoneal injections of 200 micrograms (E)-4-carboxystyryl-4-chlorobenzylsulfone dissolved in DMSO (a 10 mg/Kg dose, based on 20 g mice) 18 and 6 hours before irradiation with 8 Gy gamma radiation. The other group, designated “500×2,” received intraperitoneal injections of 500 micrograms (E)-4-carboxystyryl-4-chlorobenzylsulfone dissolved in DMSO (a 25 mg/Kg dose, based on 20 g mice) 18 and 6 hours before irradiation with 8 Gy gamma radiation. A control group of 16 animals received 8 Gy gamma radiation alone.

[3] = system: rodent species; conditions: in vivo; cited from earlier work

Compound | Activity (radioprotective activity, fold protection) [1] | other results
O=S(=O)(/C=C/c1ccc(F)cc1)Cc1ccc(Cl)cc1 [Compound 1, (E)-4-Fluorostyryl-4-chlorobenzylsulfone] | + (A “+” indicates radioprotective activity of between 2- and 4.5-fold at the concentrations tested) | 
O=S(=O)(/C=C\c1ccc(F)cc1)Cc1ccc(Cl)cc1 [Compound 7, (Z)-4-Fluorostyryl-4-chlorobenzylsulfone] | + (A “+” indicates radioprotective activity of between 2- and 4.5-fold at the concentrations tested) | 
O=S(=O)(/C=C/c1ccoc1)Cc1ccc(Cl)cc1Cl [Compound 8, (E)-3-Furanethenyl-2,4-dichlorobenzylsulfone] | + (A “+” indicates radioprotective activity of between 2- and 4.5-fold at the concentrations tested) | 
O=C(O)c1ccc(/C=C/S(=O)(=O)Cc2ccc(Cl)cc2)cc1 [Compound 13, (E)-4-Carboxystyryl-4-chlorobenzylsulfone] | + (A “+” indicates radioprotective activity of between 2- and 4.5-fold at the concentrations tested) | maximum mortality rate by day 40 ([2]; “200×2” group: 10 mg/Kg intraperitoneal 18 and 6 hours before 8 Gy gamma radiation): approximately 60%; mice dead at day 20 ([2]; “200×2” group: 10 mg/Kg intraperitoneal 18 and 6 hours before 8 Gy gamma radiation (control 80%)): about 50%; maximum mortality rate by day 40 ([2]; “500×2” group: 25 mg/Kg intraperitoneal 18 and 6 hours before 8 Gy gamma radiation): about 50%; mice dead at day 20 ([2]; “500×2” group: 25 mg/Kg intraperitoneal 18 and 6 hours before 8 Gy gamma radiation (control 80%)): about 30%
(E)-2,4,6-Trimethoxystyryl-4-methoxybenzylsulfone [Compound 2] | + (A “+” indicates radioprotective activity of between 2- and 4.5-fold at the concentrations tested) | 
(E)-4-Fluorostyryl-4-chlorophenylsulfone [Compound 10] | + (A “+” indicates radioprotective activity of between 2- and 4.5-fold at the concentrations tested) | 
(E)-4-Fluorostyryl-4-cyanobenzylsulfone [Compound 6] | + (A “+” indicates radioprotective activity of between 2- and 4.5-fold at the concentrations tested) | 
(E)-4-Fluorostyryl-4-trifluoromethylbenzylsulfone [Compound 5] | + (A “+” indicates radioprotective activity of between 2- and 4.5-fold at the concentrations tested) | 
(Z)-Styryl-(E)-2-methoxy-4-ethoxystyrylsulfone [Compound 11] | + (A “+” indicates radioprotective activity of between 2- and 4.5-fold at the concentrations tested) | 
Hydroxypropyl-B-Cyclodextrin [HPCD] |  | toxicity [3]: non-toxic
